This passage reports Kd results from paper PMC3084834, “Non-Conjugated Small Molecule FRET for Differentiating Monomers from Higher Molecular Weight Amyloid Beta Species” (PLoS ONE, 2011).

The target of assay [1] is T1, Amyloid beta 40 (Aβ40) aggregates (Homo sapiens, UniProt P05067).
T1 construct: gene APP; synthetic amyloid-β peptide (1-40), aggregated
In words: FRET with CRANAD-5 on Aβ[…] aggregates; apparent Kd printed in Results. It counts as binding. The following applies: cited from earlier work.

Assay [2] addresses T1, Amyloid beta 40 (Aβ40) aggregates. In words: fluorescence titration of Aβ[…] aggregates, one-site binding fit.

SMILES strings stand for the structures.

T1 sequence (P05067 672-711 limits assumed): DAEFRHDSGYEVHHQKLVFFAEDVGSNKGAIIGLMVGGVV

On to `CN(C)c1ccc(/C=C/C2=CC(/C=C/c3ccc(N(C)C)cc3)=[O+][B-](F)(F)O2)cc1` [CRANAD-2], for which the Kd in assay [1] is 38 nM.

With `CN(C)c1ccc(/C=C/C(=O)/C=C(O)/C=C/c2ccc(N(C)C)cc2)cc1` [CRANAD-5], the Kd in assay [2] is 10.5 ± 2.5 nM.
